{
  "source": "patent US9345655B2",
  "about": "“Oral care compositions” (BRIGHAM YOUNG UNIVERSITY, priority 2011, dated 2016)",
  "key": {"IL-1B": {"tested_on": "IL-1B", "assay": "Anti-inflammatory activity, cytokine generation in HKPG-stimulated U937 macrophages", "type": "cell-based, Human", "conditions": "0.1 ppm; U937 macrophages stimulated with heat killed P. gingivalis", "excerpt": "(§1) The anti-inflammatory activity of a compound of Formula (II) is studied against six human inflammatory cytokines, PGE2, IL-1B, IL-6, IL-8, TNF-a, and GM-CSF in separate sets of experiments; first against PGE2, then against the five other cytokines Human monocyte U937 cells are differentiated to macrophages and then generation of cytokines is induced by stimulating the cells using heat killed P. gingivalis (HKPG, 1×10^8 cells). Different types of inflammatory cytokines are generated by U973 cells and released into the supernatant."}, "TNF-a": {"tested_on": "TNF-a", "assay": "Anti-inflammatory activity, cytokine generation in HKPG-stimulated U937 macrophages", "type": "cell-based, Human", "conditions": "0.1 ppm; U937 macrophages stimulated with heat killed P. gingivalis", "excerpt": "as §1"}, "IL-6": {"tested_on": "IL-6", "assay": "Anti-inflammatory activity, cytokine generation in HKPG-stimulated U937 macrophages", "type": "cell-based, Human", "conditions": "0.1 ppm; U937 macrophages stimulated with heat killed P. gingivalis", "excerpt": "as §1"}, "bacterial culture": {"tested_on": "bacterial culture", "assay": "Minimum inhibitory concentration (MIC), serial 2-fold dilution in 96-well plate", "type": "cell-based", "conditions": "overnight incubation in TSB, inoculum 0.2 OD", "description": "To evaluate minimum inhibitory concentrations (MICs), the concentration of the twenty four hour culture in log phase is adjusted by diluting in tryptic soy broth (TSB) so that an optical density of 0.2 at 610nm is obtained. The bacterial culture is then ready to be used for testing.\nThree solutions are prepared: (1) 1% CPC solution in ethanol; (2) 1% solution of the Compound of Formula (II) in water; and (3) 0.5% of a Compound of Formula (II) +0.5% CPC. The solutions are diluted 1:9 in TSB. They are added to a 96-well plate and a serial dilution (2-fold) is made across the plate. The bacterial inoculum at 0.2 OD, 1000, is added to every well. The plate is incubated overnight and read on a plate reader the following day."}},
  "data": [
    {"smiles": "CCCCCCCCNCCC[C@@H](C)[C@H]1CC[C@H]2C3[C@H](OCCCN)CC4C[C@H](OCCCN)CC[C@]4(C)[C@H]3C[C@H](OCCCN)[C@]12C", "note": "(stereo partly shown) [Compound of Formula (II)]", "values": [
      {"measurement": "reduction of IL-10 (so in the source)", "setting": "IL-1B", "result": 21, "unit": "%"},
      {"measurement": "reduction of TNF-a", "setting": "TNF-a", "result": 80, "unit": "%"},
      {"measurement": "reduction of IL-6", "setting": "IL-6", "result": 60, "unit": "%"},
      {"measurement": "MIC", "setting": "bacterial culture", "result": 0.49, "unit": "µg/mL"}
    ]}
  ]
}
